These results are taken from patent US11000511B2, “Chemical compounds as antibiotics” (priority 2017, dated 2021).

Some results are limits rather than exact numbers.

Experiment [1] addresses T1, LasB elastase activity in dialysed supernatant from P. aeruginosa strain PA01 (Pseudomonas aeruginosa, UniProt P14756).
T1 construct: uses as source of enzyme dialysed supernatant from P. aeruginosa; endogenous in cells; host or cells: P. aeruginosa strain PA01 culture supernatant, filtered and dialysed
The experiment is described as follows: Elastin Congo Red assay to determine % inhibition (Assay 1). Type of experiment: biochemical. The settings on record: read-out: Elastin hydrolysis % inhibition @ 50/25 μM inhibitor concentration Assay 1. How it is done:
(§1) Experiments were therefore conducted (1) to measure the potency of inhibition of compounds of the invention against purified Pseudomonas aeruginosa LasB enzyme and also experiments were conducted (2) to measure the ability of compounds of the invention to inhibit LasB-catalysed elastin degradation. The first assay uses a commercial fluorescent synthetic peptide and purified LasB enzyme. The LasB hydrolysis kinetics are measured allowing the determination of the IC50 and Ki of the inhibitors; the second is a more physiological assay using dialysed Pseudomonas aeruginosa supernatant as source of enzyme, plus its natural substrate Elastin. It is an “end point assay” that determines the percentage of LasB inhibition by each compound for one particular time point and inhibitor concentration. Technical details are described below:
The Elastin assay uses as source of enzyme dialysed supernatant from P. aeruginosa and the elastin congo red as substrate. The natural LasB substrate, elastin, is complexed with the congo red dye (Elastin Congo Red, ECR). The elastolysis activity from the culture supernatant will degrade elastin and release the congo red dye into the supernatant. This red dye release can be measured with a spectrophotometer. Some compounds of Formula (I) were assessed using the method of Assay 1 (described below). Other compounds of Formula (I) were assessed using the alternative but equivalent method of Assay 2 (described below).
Method (Assay 1): To determine LasB elastase activity and assess compound inhibition, an overnight culture of P. aeruginosa strain PA01 is diluted thousand-fold in LB medium. This diluted solution is incubated during 19 hours in a shaking incubator. Culture supernatants are recovered by centrifugation and filtrated through a […] filter. These supernatants are dialysed (filtration molecules <20 kDa) into a 50 mM Tris pH 7.4, 2.5 mM CaCl2 solution at 4° C. under agitation for 24 hours. Supernatant dialysed is then mixed volume/volume with the ECR suspension (20 mg/mL of ECR in 100 mM Tris buffer supplemented with 1 mM CaCl2) supplemented with TritonX 100 (final concentration of 0.01%) in presence of different concentrations of compound (routinely 50 and 25 μM). The mixed reaction is then incubated for 24 hours in a 37° shaking incubator. As a negative control, the mixed supernatant is replaced by Tris solution (50 mM Tris pH 7.4, 2.5 mM CaCl2). The reaction supernatant is recovered by centrifugation and the release of congo red is measured by its absorbance at OD520. Percentage inhibition is determined using the following equation: (OD520 value of DMSO SN−OD520 value of LB)−(OD520 value of Compound SN−OD520 value of LB)/(OD520 value of DMSO SN−OD520 value of LB)×100.

Experiment [2] addresses T2, purified LasB protein from P. aeruginosa (Pseudomonas aeruginosa, UniProt P14756).
T2 construct: purchased Merck or Charles River Laboratories
The experiment is described as follows: Fluorometric assay to determine Ki (Assay 1). It counts as biochemical. The note with it: Ki (μM) Assay 1, purified LasB, substrate Abz-Ala-Gly-Leu-Ala-p-Nitro-Benzyl-Amide 250 μM, Ki calculated from IC50; inhibitor 0.006 to 200 μM. The protocol:
as §1
This assay uses commercially available substrate (Abz-Ala-Gly-Leu-Ala-p-Nitro-Benzyl-Amide (Ex: 340 nm, Em: 415 nm) from Peptide International) and purified LasB protein from P. aeruginosa (provided by Merck or Charles River Laboratories). It is performed to determine LasB elastase activity and assess compound inhibition in 96-well plate format. Some compounds of Formula (I) were assessed using the method of Assay 1 (described below). Other compounds of Formula (I) were assessed using the alternative but equivalent method of Assay 2 (described below).
Method: 10 to 140 ng/ml purified LasB is incubated with 250 μM Abz-Ala-Gly-Leu-Ala-p-Nitro-Benzyl-Amide in 50 mM Tris-HCl pH 7.4, 2.5 mM CaCl2), 0.01% of Triton X100 at 37° C. LasB activity (corresponding to fluorescence emission induced by substrate hydrolysis) is measured over 30 min at 37° C. with a fluorescence plate reader such as the Perkin Elmer Envision or similar. Different range of inhibitor concentrations are routinely assessed depending of inhibitor potency from 0.006 to 200 μM (Assay 1; 2-fold dilutions series) or from 0.0016 to 200 μM (Assay 2; 2-fold dilutions series) in order to determine IC50.
The equation used to calculate the Ki from IC50 is: Ki=IC50/(1+([S]/Km)) where [S]=250 μM and Km=214 μM.

T2 sequence (P14756 198-498): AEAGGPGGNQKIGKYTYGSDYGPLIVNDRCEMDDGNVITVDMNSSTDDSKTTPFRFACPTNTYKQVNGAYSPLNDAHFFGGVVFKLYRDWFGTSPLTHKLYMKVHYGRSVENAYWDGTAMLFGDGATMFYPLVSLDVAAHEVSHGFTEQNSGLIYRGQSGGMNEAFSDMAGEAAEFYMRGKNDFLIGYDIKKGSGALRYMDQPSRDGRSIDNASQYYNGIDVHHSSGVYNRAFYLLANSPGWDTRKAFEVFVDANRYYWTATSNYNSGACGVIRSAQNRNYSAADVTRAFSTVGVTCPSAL
T1 sequence (P14756 198-498): as above

What is called Ki is the equilibrium dissociation constant of an inhibitor or competing ligand from its target. Regarding `C[N+](C)(C)C[C@H]1C[C@@H](c2ccc3nc(CNC(=O)C4(CC(=O)[O-])Cc5ccccc5C4)sc3c2)C1` [Example 94, 2-[2-[[6-[(1s,3s)-3-[(trimethylammonio)methyl]cyclobutyl]-1,3-benzothiazol-2-yl]methylcarbamoyl]indan-2-yl]acetate], the inhibition at 50 µM in experiment [1] is more than 60%. The inhibition constant Ki in experiment [2] is less than 0.3 µM.

For `CC(NC(=O)C1(CC(=O)O)Cc2ccccc2C1)c1cc2ccccc2o1` (single isomer, unassigned) [Example 58, 2-[2-[[(1R*)-1-(benzofuran-2-yl)ethyl]carbamoyl]indan-2-yl]acetic acid], the inhibition at 50 µM in experiment [1] is 30 to 60%. Also, in experiment [2], the Ki was 2 to 10 µM.

Turning to `CN(C)C[C@H]1C[C@@H](c2ccc3nc(CNC(=O)C4(CC(=O)O)Cc5ccccc5C4)sc3c2)C1` [Example 93, 2-(2-(((6-((1s,3s)-3-((dimethylamino)methyl)cyclobutyl)benzo[d]thiazol-2-yl)methyl)carbamoyl)-2,3-dihydro-1H-inden-2-yl)acetic acid], in experiment [1], the inhibition at 50 µM was more than 60%. Further, the Ki in experiment [2] is less than 0.3 µM.

Regarding `C[N+](C)(C)CCCc1ccc2nc(CNC(=O)C3(CC(=O)O)Cc4ccccc4C3)sc2c1` [Example 37, 3-[2-[[[2-(carboxymethyl)indane-2-carbonyl]amino]methyl]-1,3-benzothiazol-6-yl]propyl-trimethyl-ammonium], the inhibition at 50 µM in experiment [1] is more than 60%. In experiment [2], the Ki was 0.3 to 2 µM.

Consider `NC1CN(c2ccc3sc(CNC(=O)C4(CC(=O)O)Cc5ccccc5C4)nc3c2)C1` [Example 73, 2-[2-[[5-(3-aminoazetidin-1-yl)-1,3-benzothiazol-2-yl]methylcarbamoyl]indan-2-yl]acetic acid], for which the inhibition at 50 µM in experiment [1] was more than 60%. The Ki in experiment [2] is less than 0.3 µM.

In the case of `CN(C)C1CN(c2ccc3sc(CNC(=O)C4(CC(=O)O)Cc5ccccc5C4)nc3c2)C1` [Example 74, 2-[2-[[5-[3-(dimethylamino)azetidin-1-yl]-1,3-benzothiazol-2-yl]methylcarbamoyl]indan-2-yl]acetic acid], the inhibition at 50 µM in experiment [1] is more than 60%. Also, in experiment [2], the inhibition constant Ki is less than 0.3 µM.

Consider `Cc1c(CNC(=O)C2(CC(=O)O)Cc3ccccc3C2)oc2ccccc12` [Example 11, 2-(2-{[2-(3-methyl-1-benzofuran-2-yl)methyl]carbamoyl}-2,3-dihydro-1H-inden-2-yl)acetic acid], for which, in experiment [1], the inhibition at 50 µM lay in the range of 30 to 60%. Further, in experiment [2], the inhibition constant (Ki) was 0.3 to 2 µM.

Regarding `N[C@@H]1CCN(c2ccc3nc(CNC(=O)C4(CC(=O)O)Cc5ccccc5C4)sc3c2)C1` [Example 102, 2-[2-[[6-[(3R)-3-aminopyrrolidin-1-yl]-1,3-benzothiazol-2-yl]methylcarbamoyl]indan-2-yl]acetic acid], in experiment [1], the inhibition at 50 µM is more than 60%. Also, the Ki in experiment [2] is less than 0.3 µM.

With `Cc1ccc2oc(CNC(=O)C3(CC(=O)O)Cc4ccccc4C3)cc2c1` [Example 6, 2-(2-{[(5-methyl-1-benzofuran-2-yl)methyl]carbamoyl}-2,3-dihydro-1H-inden-2-yl)acetic acid], in experiment [1], the inhibition at 50 µM was more than 60%. Also, the inhibition constant (Ki) in experiment [2] was less than 0.3 µM.

Consider `O=C(O)CC1(C(=O)NCc2cc3ccccc3[nH]2)Cc2ccccc2C1` [Example 29, 2-[2-(1H-indol-2-ylmethylcarbamoyl)indan-2-yl]acetic acid], for which, in experiment [1], the inhibition at 50 µM lay within 30 to 60%. Moreover, the Ki in experiment [2] is less than 0.3 µM.

For the compound `Cc1cccc2sc(CNC(=O)C3(CC(=O)O)Cc4ccccc4C3)nc12` [Example 65, 2-(2-(((4-methylbenzo[d]thiazol-2-yl)methyl)carbamoyl)-2,3-dihydro-1H-inden-2-yl)acetic acid], in experiment [1], the inhibition at 50 µM is more than 60%. Besides, in experiment [2], the Ki is less than 0.3 µM.

Consider `COc1cccc2sc(CNC(=O)C3(CC(=O)O)Cc4ccccc4C3)nc12` [Example 62, 2-(2-(((4-methoxybenzo[d]thiazol-2-yl)methyl)carbamoyl)-2,3-dihydro-1H-inden-2-yl)acetic acid], for which the inhibition at 50 µM in experiment [1] is more than 60%. The Ki in experiment [2] was less than 0.3 µM.

On to `O=C(O)CC1(C(=O)NCc2nc3c(s2)CNCC3)Cc2ccccc2C1` [Example 44, 2-[2-(4,5,6,7-tetrahydrothiazolo[5,4-c]pyridin-2-ylmethylcarbamoyl)indan-2-yl]acetic acid], for which the inhibition at 50 µM in experiment [1] was in the range of 15 to 30%. In addition, the inhibition constant (Ki) in experiment [2] is 2 to 10 µM.

With `CN1CCc2nc(CNC(=O)C3(CC(=O)O)Cc4ccccc4C3)sc2C1` [Example 129, 2-[2-[(5-methyl-6,7-dihydro-4H-thiazolo[5,4-c]pyridin-2-yl)methylcarbamoyl]indan-2-yl]acetic acid], the inhibition at 50 µM in experiment [1] lay in the range of 30 to 60%. Further, in experiment [2], the Ki is 0.3 to 2 µM.

For the compound `COc1ccc2sc(CNC(=O)C3(CC(=O)O)Cc4ccccc4C3)nc2c1` [Example 24, 2-[2-[(5-methoxy-1,3-benzothiazol-2-yl)methylcarbamoyl]indan-2-yl]acetic acid], the inhibition at 50 µM in experiment [1] was more than 60%. For the same compound, the Ki in experiment [2] is less than 0.3 µM.

Consider `O=C(O)CC1(C(=O)NCc2cc3ccccc3cn2)Cc2ccccc2C1` [Example 2, 2-[2-(3-isoquinolylmethylcarbamoyl)indan-2-yl]acetic acid], for which, in experiment [1], the inhibition at 50 µM fell in the range of 30 to 60%. Also, the inhibition constant (Ki) in experiment [2] was 0.3 to 2 µM.

With `O=C(O)CC1(C(=O)NCc2ccccc2)Cc2ccccc2C1` [Example 16, 2-[2-(benzylcarbamoyl)indan-2-yl]acetic acid], the inhibition at 50 µM in experiment [1] is 30 to 60%. Also, the Ki in experiment [2] is 2 to 10 µM.

With `C[N+]1(C)CCN(c2ccc3nc(CNC(=O)C4(CC(=O)O)Cc5ccccc5C4)sc3c2)CC1` [Example 43, 2-[2-[[6-(4,4-dimethylpiperazin-4-ium-1-yl)-1,3-benzothiazol-2-yl]methylcarbamoyl]indan-2-yl]acetic acid], the inhibition at 50 µM in experiment [1] was 30 to 60%. Moreover, the Ki in experiment [2] is 0.3 to 2 µM.

Turning to `CN1CC2(C1)CN(c1ccc3nc(CNC(=O)C4(CC(=O)O)Cc5ccccc5C4)sc3c1)C2` [Example 71, 2-[2-[[6-(6-methyl-2,6-diazaspiro[3.3]heptan-2-yl)-1,3-benzothiazol-2-yl]methylcarbamoyl]indan-2-yl]acetic acid], the inhibition at 50 µM in experiment [1] was more than 60%. Besides, the Ki in experiment [2] was less than 0.3 µM.

On to `O=C(O)CC1(C(=O)NC2CCN(c3cccc(Cl)c3)C2)Cc2ccccc2C1` (centres unmarked) [Example 8, 2-[2-[[1-(3-chlorophenyl)pyrrolidin-3-yl]carbamoyl]indan-2-yl]acctic acid], for which, in experiment [1], the inhibition at 50 µM was more than 60%. For the same compound, the inhibition constant (Ki) in experiment [2] is less than 0.3 µM.

As for `C[N+](C)(C)CC#Cc1ccc2nc(CNC(=O)C3(CC(=O)[O-])Cc4ccccc4C3)sc2c1` [Example 86, 2-[2-[[6-[3-(trimethylammonio)prop-1-ynyl]-1,3-benzothiazol-2-yl]methylcarbamoyl]indan-2-yl]acetate], the inhibition at 50 µM in experiment [1] is more than 60%. Also, the Ki in experiment [2] was less than 0.3 µM.

For `CC(C)(C)OC(=O)[C@H](Cc1c[nH]c2ccccc12)NC(=O)C1(CC(=O)O)Cc2ccccc2C1` [Example 47, (S)-2-(2-((1-(tert-butoxy)-3-(1H-indol-3-yl)-1-oxopropan-2-yl)carbamoyl)-2,3-dihydro-1H-inden-2-yl)acetic acid], the inhibition at 50 µM in experiment [1] was more than 60%. Also, the inhibition constant Ki in experiment [2] was less than 0.3 µM.
